Measured values from a melting point compilation (Tetko et al.; mined from patent text by program, amines drawn as free bases though some values may be those of a salt).

melting point [°C]	SMILES
170 to 171	Nc1nccc(-c2cn(-c3ccccc3)nc2-c2ccc(F)cc2)n1
227 to 229	CC(=O)NCc1cccc(Nc2nccc(-c3sc(-c4ccc(C)nc4)nc3C)n2)c1
110 to 111	COc1ccc(-c2cc(=O)n(CCCOc3ccccc3)nc2-c2ccc(OC)cc2)cc1
146 to 148	COc1cc(C(=O)N2Cc3cccn3Cc3ccccc32)ccc1-c1ccccc1C(F)(F)F
231 to 234	O=C(NCCc1ccc(Cl)cc1)c1c(Cl)ccc2nc(N3CCC(C(=O)O)CC3)ccc12
60	CCOC(=O)c1n[nH]c(C(=O)OCC)c1C(O)c1ccc(Cl)cc1[N+](=O)[O-] (centres undefined)
179 to 180	c1ccc(-c2cnc3c(c2)ncn3-c2cccc(-c3cccnc3)c2)cc1
153 to 154	CCS(=O)(=O)N(c1cc(-c2nsc(C(F)(F)F)c2Cl)c(Cl)cc1Cl)S(=O)(=O)CC
> 300	Cn1cnc2nc(-c3ccc(C#N)cc3)nn2c1=S
187 to 190	O=C1OC(=O)c2c(Cl)ccc(Cl)c21
94 to 96	COc1cc(NC(=O)CCCCCN2CC(C)NC(C)C2)c2nccc(C)c2c1 (centres undefined)
135 to 137	COCCN1CCC(O)(c2cccc(Cl)c2Cl)CC1
109 to 112	COc1cc(C)c(C(=O)c2c(Cl)nc(Cl)c(C(C)=O)c2C(F)(F)F)c(OC)c1OC
122 to 123	COC(=O)Cc1nc(-c2ccccc2)c2cc(Cl)ccc2n1
177 to 179	COc1ccc(C2=NN(Cc3ccc(O)cc3)C(=O)[C@H]3CCCC[C@@H]23)cc1OC (relative stereo)
219 to 220	COc1ccc2c(c1)N(c1ccc(F)cc1)C(=O)C2NC(=O)c1cc2ccccc2cn1 (centres undefined)
146	CC(Oc1cccc(Oc2c(Cl)cc(C(F)(F)F)cc2Cl)c1)(C(=O)O)[N+](=O)[O-] (centres undefined)
> 280	O=C(Nc1nc(-c2cc(Cl)nc(Cl)c2)cs1)NS(=O)(=O)c1ccccc1C(F)(F)F
148 to 149	O=c1c2ccc(Cl)cc2n(Cc2ccccc2)n2c(Br)ccc12
133 to 135	CCc1ccc(Nc2nnc(Cc3ccnc(O)c3)c3ccccc23)cc1Br
95 to 100	CC1C(=O)NN(c2cc(Cl)cc(Cl)c2)C1=O (centres undefined)
201 to 203	COc1sc(-c2csc(C(N)=O)n2)c(Cl)c1C
> 250	O=Cc1c[nH]c2c1ccc1c3cc(-c4ccc(C(F)(F)F)cc4)ccc3[nH]c12
208	O=C(Nc1cccc(S(=O)(=O)N(CCO)CCO)c1)c1cnn2c(C(F)F)cc(-c3ccc(C(F)(F)F)cc3)nc12

melting point [°C]	SMILES
197 to 199	CCNc1nc(Cl)c(Cl)c(N2CCN(CC[C@H]3CC[C@H](NC(=O)OC(C)(C)C)CC3)CC2)n1
138	CCOC(=O)CCC1Cc2cc(O)ccc2NC1=O (centres undefined)
144 to 147	CC(C)CNC(=O)C1=C(C(=O)Nc2cc(OC3CCC(C)C3)c(Cl)cc2F)CCCC1 (centres undefined)
129 to 131	CC(CO)c1ccc2cc(OCc3ccc4ccccc4n3)ccc2c1 (centres undefined)
180 to 181	Cc1oc(-c2ccccc2)nc1COc1ccc(CCCC2OC(=O)NC2=O)cc1F (centres undefined)
242 to 243	O=Cc1c[nH]c2ccc(C(F)(F)F)cc12
141 to 142	CC1=C(C)C(C)(OC(N)=O)N(c2ccc(Cl)c(Cl)c2)C1=O (centres undefined)
111	CCOC(=O)C(=O)c1cc(Cl)c(C)cc1NC(=O)OC(C)(C)C
141 to 142	CS(=O)(=O)c1ccc(-n2cncc2-c2ccc(OC(F)(F)F)cc2)cc1
130 to 132	O=[N+]([O-])c1ccc(N2CC(O)C2)c(F)c1
132 to 134	O=C1N(CCCCN2CCN(c3n[nH]c4cc(F)ccc34)CC2)CSC12CCCC2
165 to 171	CC(=O)N(O)Cc1ccccc1Nc1c(Cl)cccc1Cl
131 to 134	CCN1C(=O)C2C3CCC(CC3)C2(c2ccc(Cl)c(Cl)c2)C1=O (centres undefined)
76 to 78	Cn1nc(-c2ncc(Cl)cc2F)c(Cl)c1C(F)(F)F
125	CC(C)(c1cc(F)ccc1O)c1cc(Cl)ccc1O
295 to 297	Cc1nc(-c2ccccn2)n2cn[nH]c(=O)c12
180 to 184	COC(=O)c1cccc(-c2ccnc3c(C(=O)c4cccs4)cnn23)c1
50 to 51	Clc1cccc2cnsc12
166 to 169	CCC(=O)N1CCC(=NO)c2cc(Cl)ccc21
226	Fc1ccc(Cn2c(NC3CCN(CCNc4ncc[nH]4)CC3)nc3ccccc32)cc1
167 to 171	CCOC(=O)/C=C/c1cc(-c2ccc(C)cc2)n(-c2ccc(S(N)(=O)=O)cc2)n1
213 to 216	FC(F)(F)Oc1ccc(-n2cnc(-c3ccc(/C=N/NC(=S)Nc4ccccc4C4CCCC4)cc3)n2)cc1
100 to 101	Cn1cccc1-c1nc2cc(Cl)cc(CCc3ccccn3)c2o1

Further lines, the compound ahead of its results:

SMILES	melting point [°C]
CCCCCC(CC(=O)Nc1cc(C(N)=O)ccc1C(C)(C)C)c1cc(C)c(OC)cc1OC (centres undefined)	179 to 180
O=c1[nH]c2ccccc2n1CCN1CCC(C(c2ccccc2)c2ccccc2)CC1	195 to 196
Cc1ccc(C(=O)CBr)cc1S(N)(=O)=O	146 to 148
COc1ccc(C(=O)Cc2cccnc2)cc1	71 to 72
N#Cc1ccc(Cn2c3cc(O)c(O)cc3c3ccc(O)c(O)c32)cc1	225 to 227
Nc1sc2c(c1C(=O)c1cccs1)CCC2	133 to 134
COc1ccc(C2(C#Cc3ccc(C(=O)O)cc3)CCC(=O)CC2)cc1OC1CCCC1	170 to 171
COC1=NC(c2cccc([N+](=O)[O-])c2)C(C(=O)OC(C)C)=C(C)N1 (centres undefined)	130 to 132
COc1cccc(NC(=O)NC2N=C(C(C)C)c3ccccc3N(CC(=O)N3CC4CCC(CC4)C3)C2=O)c1 (centres undefined)	139 to 142
COCCN1CC(c2ccccc2)NC1=S (centres undefined)	76 to 78
CC(C)c1ccc(C2COc3ccc(NC(=O)CC(C)(C)C)cc32)cc1 (centres undefined)	119 to 120
CCN(CC)CCCOc1ccc(-c2cc3ccccc3o2)cc1	86 to 88
CC(=O)O[C@@H]1OCC[C@@H]1NC(=O)[C@H](CC(C)C)NC(=O)[C@H](CC(C)C)NC(=O)OCc1ccccc1	175 to 176
O=C(NCC1Cc2cccc(-c3c(Cl)cccc3Cl)c2O1)OCc1ccccc1 (centres undefined)	198 to 200
C=C1CN(Cc2ccc(C(=O)Nc3ccccc3N)cc2)C(CC(=O)O)c2ccccc21 (centres undefined)	> 230
CCCN[C@H]1CC[C@H](Oc2ccc3[nH]ncc3c2SC)CC1	168 to 169
OC1(Cc2ccccc2)CCN(CCC#Cc2ccccc2)CC1	80 to 82
NC(=O)C1(O)c2ccccc2S(=O)(=O)N1Cc1ccc(Br)cc1F (centres undefined)	182 to 184
CC(=O)O[C@H]1CC[C@H](CCCCCCC(=O)O)CC1	66 to 68
CC(C)=NNc1ccc(OCC(C)(C)NCC(O)COc2ccccc2C#N)nn1 (centres undefined)	126 to 128
CCOC(=O)C(=C1NCCCS1)[N+](=O)[O-]	100 to 102
O=C(C=Cc1cccnc1)NCCCCC1CCN(C(c2ccccc2)C2CCCCC2)CC1 (centres undefined)	143 to 145
COc1ccc2c(c1)C(c1ccc([N+](=O)[O-])cc1)=NNC(=O)C2	282
CC(=O)OC(c1cccnc1)c1c(O)c(=O)ccn1C (centres undefined)	153 to 154
Cc1cccc(C(=O)NCN2CCN(c3ccccn3)CC2)c1	141 to 143
COC1=C(OC)C(=O)C2=C(CC(CCCCCCCCOC(C)=O)C2)C1=O	47 to 48

SMILES	melting point [°C]
CC1Cc2ccc(Cl)cc2C(c2ccc(N)cc2)=NN1C(=O)C(F)(F)F (centres undefined)	165 to 167
Nc1ccc(-c2nc(N3CCOCC3)c3sc(C(=O)NCC4CCN(c5ncc(C(=O)NO)cn5)CC4)cc3n2)cc1	232 to 238
CCCCOC(=O)CNC(=O)c1nc2ccc(OCCCC)cc2cc1OCc1ccccc1	99 to 101
O=[N+]([O-])c1ccc(C(Nc2ccccc2)P(=O)(Oc2ccccc2)Oc2ccccc2)cc1 (centres undefined)	158 to 160
Cc1cccc(C(N)c2ccc(OCCOc3ccc(C(N)c4cccc(C)c4)cc3)cc2)c1 (centres undefined)	113 to 115
CC(C)C[C@H](N)C(=O)NCCCCCNC(=O)OCc1ccccc1	145 to 146
COC(=O)c1cc(N)c(C)s1	90 to 91
COc1ccc(C(=O)NN=Cc2ccc3ccccc3n2)cc1	217 to 218
O=CNc1nc(C(=NOC2CCCCC2)C(=O)O)cs1	> 230
CC(C)(C)c1cc(SCCOCC(=O)O)cc(C(C)(C)C)c1O	86
Brc1ccc(-c2ccc3ccccc3c2)cc1	121 to 123
OCc1ccc(OCCF)cc1	37.3 to 38
O=C(O)c1ccc(C#Cc2ccc(OCCCO)c(C34CC5CC(CC(C5)C3)C4)c2)cc1	290 to 292
CN(C)C1CCC2(CC1)Nc1cc(Cl)c(S(N)(=O)=O)cc1S(=O)(=O)N2 (centres undefined)	255
Cc1ccccc1-n1c(C=Cc2ccccc2F)nc2ccsc2c1=O	220 to 221
COc1cc(COc2nn(-c3ccccc3)cc2/C=C/C=O)ccc1OCc1nc(-c2ccco2)oc1C	134 to 135
CCN(CC)C(=O)c1ccccc1-c1ccc2ccccc2c1	52 to 53
CNC(=O)c1ccc(C(=O)O)cc1	270
COc1ccc2c3c1OC1C(O)C(CO)(CO)CC4C(C2)N(C)CCC341 (centres undefined)	> 265
CC(C)(C)C1OC1C(O)C1CCCCC1 (centres undefined)	38 to 48
O=C(NO)[C@H]1CN(C(=O)Nc2ccccc2)CCN1S(=O)(=O)c1ccc(-c2ccc(F)cc2)s1	187 to 188
O=C(O)C(Cc1ccccc1)Nc1cc(-c2ccc(OCc3ccccc3)nc2)ncn1 (centres undefined)	130 to 133
CC[C@@H]1N(c2ccc(C#N)c(Cl)c2)C(=O)C[C@@]1(O)C1CC1	128 to 132
CCOC(=O)c1c[nH]cc1-c1ccc(C)cc1	154 to 155
CC(C)(C)OC(=O)N(CCOc1cccc2[nH]ccc12)Cc1ccccc1	46 to 48
CCCCc1nc2c(c(=O)[nH]1)CN(C(C)=O)CC2	106 to 113
